Reference: publication PMC9959918 (2023)

Key:
[1] = test system: CPG-ds27 (DNA, hairpin) CGCGAATTCGCGTTTCGCGAATTCGCG; test: G4-CPG affinity assay, UV; conditions: 50 mM KCl, 10% DMSO, 10% ethanol, 60 μM compound, error ±2%
[2] = test system: CPG-c-myc (DNA, G4) TGGGGAGGGTGGGGAGGGTGGGGAAGGTGGGGA; test: G4-CPG affinity assay, UV; conditions: 50 mM KCl, 10% DMSO, 10% ethanol, 60 μM compound, error ±2%
[3] = test system: CPG-tel26 (DNA, G4) TTAGGGTTAGGGTTAGGGTTAGGGTT; test: G4-CPG affinity assay, UV; conditions: 50 mM KCl, 10% DMSO, 10% ethanol, 60 μM compound, error ±2%
[4] = test system: Pu22T14T23 (Pu22) (DNA, G4) TGAGGGTGGGTAGGGTGGGTAA; test: fluorescence titration, 2 μM ligand, equivalent-sites fit; conditions: 5 mM KCl, 5 mM KH2PO4; 5% DMSO, pH 7, 20 °C
[5] = test system: ds12 (Dickerson dodecamer) (DNA, duplex) CGCGAATTCGCG; test: as above; conditions: 5 mM KCl, 5 mM KH2PO4; 5% DMSO, pH 7, 20 °C
[6] = test system: ds12 (Dickerson dodecamer) (DNA, duplex) CGCGAATTCGCG; test: CD melting, 253 nm; conditions: 5 mM KCl, 5 mM KH2PO4; 5% DMSO, pH 7; 2 μM DNA, 20 μM compound (10 equiv.); Tm ± 1
[7] = test system: Pu22T14T23 (Pu22) (DNA, G4) TGAGGGTGGGTAGGGTGGGTAA; test: CD melting, 265 nm; conditions: 5 mM KCl, 5 mM KH2PO4; 5% DMSO, pH 7; 2 μM DNA, 20 μM compound (10 equiv.); Tm ± 1
[8] = test system: tel26 (DNA, G4) TTAGGGTTAGGGTTAGGGTTAGGGTT; test: CD melting, 290 nm; conditions: 5 mM KCl, 5 mM KH2PO4; 5% DMSO, pH 7; 2 μM DNA, 20 μM compound (10 equiv.); Tm ± 1
[9] = test system: tel26 (DNA, G4) TTAGGGTTAGGGTTAGGGTTAGGGTT; test: fluorescence titration, 2 μM ligand, equivalent-sites fit; conditions: 5 mM KCl, 5 mM KH2PO4; 5% DMSO, pH 7, 20 °C

`CC1(C)C=Cc2c(ccc3c2O[C@@H]2COc4cc5c(cc4[C@@H]2C3=O)OCO5)O1` was tested, and the “Bound Ligand” value ([1]; nude CPG 8%) was 8%, the “Bound Ligand” value ([2]; nude CPG 8%) was 8% and the “Bound Ligand” value ([3]; nude CPG 8%) was 8%.
For `COc1cc2c(cc1OC)[C@@H]1C(=O)c3ccc4c(c3O[C@@H]1CO2)C=CC(C)(C)O4`, the “Bound Ligand” value ([1]; nude CPG 0%) was 0%, the “Bound Ligand” value ([2]; nude CPG 0%) was 0% and the “Bound Ligand” value ([3]; nude CPG 0%) was 0%.
In the case of `COc1cc2c(cc1OC)-c1c(OC)c(OC)cc3c1[C@H](C2)N(C)CC3`, the “Bound Ligand” value ([1]; nude CPG 0%) is reported as 0%, the “Bound Ligand” value ([2]; nude CPG 0%) is reported as 1% and the “Bound Ligand” value ([3]; nude CPG 0%) is reported as 2%.
`COc1cc2c(cc1OC)-c1c3c(cc4c1[C@H](C2)N(C)CC4)OCO3` was tested, and the Kb [4] was “(0.8 ± 0.5) × 10^6 M^−1”, the Kb [5] was “(3.2 ± 0.4) × 10^5 M^−1” and the ΔTm [6] was “+1 °C”. For the same compound, the ΔTm [7] was “+5 °C”, the “Bound Ligand” value ([1]; nude CPG 0%) was 30% and the “Bound Ligand” value ([2]; nude CPG 0%) was 47%. The ΔTm [8] was “+3 °C”, the Kb [9] was “(2.8 ± 1.2) × 10^6 M^−1” and the “Bound Ligand” value ([3]; nude CPG 0%) was 67%.
For `COc1ccc2c(c1OC)CN1CCc3cc4c(cc3[C@@H]1C2)OCO4`, the “Bound Ligand” value ([1]; nude CPG 21%) was 4%.
